# Reference: the NIST ThermoML archive (doi:10.1016/j.jct.2013.01.006)
# ± gives the expanded uncertainty stated by the source.
# Settings: Liquid, Vibrating tube method
structure (smiles),measurement,setting,value
"FCC(F)(F)F [1,1,1,2-tetrafluoroethane]",mass density,"283.52 K, 1010 kPa",1262.83 ± 0.53 kg/m3
same,mass density,"283.53 K, 5000 kPa",1279.7 ± 0.52 kg/m3
same,mass density,"283.54 K, 10000 kPa",1298.2 ± 0.51 kg/m3
same,mass density,"283.54 K, 20000 kPa",1329.16 ± 0.58 kg/m3
same,mass density,"283.54 K, 39990 kPa",1376.78 ± 0.81 kg/m3
same,mass density,"283.54 K, 60010 kPa",1413.66 ± 1.2 kg/m3
same,mass density,"283.54 K, 80020 kPa",1444.29 ± 1.6 kg/m3
same,mass density,"303.26 K, 1000 kPa",1188.74 ± 0.7 kg/m3
same,mass density,"303.27 K, 5000 kPa",1212.6 ± 0.6 kg/m3
same,mass density,"303.28 K, 10000 kPa",1237.15 ± 0.54 kg/m3
same,mass density,"303.29 K, 19980 kPa",1275.91 ± 0.56 kg/m3
same,mass density,"303.29 K, 40010 kPa",1332.33 ± 0.75 kg/m3
same,mass density,"303.3 K, 60000 kPa",1374.15 ± 1.1 kg/m3
same,mass density,"303.3 K, 79980 kPa",1408.2 ± 1.5 kg/m3
same,mass density,"323.07 K, 1280 kPa",1102.44 ± 1 kg/m3
same,mass density,"323.08 K, 5000 kPa",1136.68 ± 0.78 kg/m3
same,mass density,"323.08 K, 10000 kPa",1170.98 ± 0.62 kg/m3
same,mass density,"323.09 K, 20000 kPa",1220.67 ± 0.56 kg/m3
same,mass density,"323.11 K, 60000 kPa",1335.02 ± 0.95 kg/m3
same,mass density,"323.11 K, 80000 kPa",1372.84 ± 1.4 kg/m3
same,mass density,"323.12 K, 40000 kPa",1287.6 ± 0.69 kg/m3
same,mass density,"343.02 K, 10000 kPa",1097 ± 0.78 kg/m3
same,mass density,"343.02 K, 20000 kPa",1162.16 ± 0.58 kg/m3
same,mass density,"343.02 K, 39990 kPa",1241.93 ± 0.63 kg/m3
same,mass density,"343.02 K, 60010 kPa",1295.73 ± 0.86 kg/m3
same,mass density,"343.03 K, 4990 kPa",1045.24 ± 1.2 kg/m3
same,mass density,"343.03 K, 80010 kPa",1337.58 ± 1.3 kg/m3
same,mass density,"343.05 K, 2090 kPa",997.14 ± 1.7 kg/m3
same,mass density,"362.95 K, 5000 kPa",921.91 ± 2.2 kg/m3
same,mass density,"362.95 K, 10000 kPa",1012.79 ± 1.1 kg/m3
same,mass density,"362.96 K, 20000 kPa",1101.23 ± 0.65 kg/m3
same,mass density,"362.97 K, 40000 kPa",1196.59 ± 0.6 kg/m3
same,mass density,"362.98 K, 60000 kPa",1257.2 ± 0.78 kg/m3
same,mass density,"362.99 K, 80000 kPa",1302.95 ± 1.2 kg/m3
